From US10899756B2, “Phosphodiesterase inhibitors and uses thereof” (The Trustees of Columbia University in the City of New York, priority 2013, dated 2021)

Target: PDE5 (Homo sapiens (Human), UniProt O76074)
Experiment: PDE5 Inhibition Assay (BPS PDE assay kit, fluorescence polarization)
Type: biochemical
Experimental: Materials and Methods: PDE5 inhibition was assayed at BPS Bioscience (San Diego, Calif.) using BPS PDE assay kits (BPS Catalog number 60300, enzyme lot 090810). Test compounds were supplied as liquid solutions of 10 mM concentration in DMSO. Sildenafil, used as a standard was dissolved in DMSO. Intermediate dilutions were 10% DMSO in PDE assay buffer and tests at ranges from 0.1 to 100 nM. 0.1 ng of enzyme was used per reaction, and the substrate was 100 nM FAM-cGMP.
Assay conditions: A series of dilutions of the test compounds were prepared with 10% DMSO in assay buffer and 5 μl of the dilution was added to a 50 μl reaction so that the final concentration of DMSO is 1% in all of reactions. The enzymatic reactions were conducted at room temperature for 60 minutes in a 50 μl mixture containing PDE assay buffer, 100 nM FAM-cAMP or 100 nM FAM-cGMP, a PDE enzyme, and the test compound. After the enzymatic reaction, 100 μl of a binding solution (1:100 dilution of the binding agent with the binding agent diluent) was added to each reaction and the reaction was performed at room temperature for 60 minutes. Fluorescence intensity was measured at an excitation of 485 nm and an emission of 528 nm using a Tecan Infinite M1000 microplate reader.
Data analysis: PDE activity assays were performed in duplicate at each concentration.
Fluorescence intensity is converted to fluorescence polarization using the Tecan Magellan6 software. The fluorescence polarization data were analyzed using the computer software, Graphpad Prism. The fluorescence polarization (FPt) in absence of the compound in each data set was defined as 100% activity. In the absence of PDE and the compound, the value of fluorescent polarization (FPb) in each data set was defined as 0% activity. The percent activity in the presence of the compound was calculated according to the following equation: % activity=(FP−FPb)/(FPt−FPb)×100%, where FP=the fluorescence polarization in the presence of the compound.
The values of % activity versus a series of compound concentrations were then plotted using non-linear regression analysis of Sigmoidal dose-response curve generated with the equation Y=B+(T−B)/1+10^((LogEC50−X)×Hill Slope), where Y=percent activity, B=minimum percent activity, T=maximum percent activity, X=logarithm of compound and Hill Slope=slope factor or Hill coefficient. The IC50 value was determined by the concentration causing a half-maximal percent activity.

Compared with `CCN1CCc2nc3ccc(C#N)cc3c(NCc3ccc(OC)c(Cl)c3)c2C1` [C, 10-[(3-chloro-4-methoxybenzyl)amino]-2-ethyl-1,2,3,4-tetrahydrobenzo[b][1,6]naphthyridine-8-carbonitrile], `COc1ccc(CNc2c3c(nc4ccc(C#N)cc24)CCN(C)C3)cc1Cl` [B, 10-[(3-chloro-4-methoxybenzyl)amino]-2-methyl-1,2,3,4-tetrahydrobenzo[b][1,6]naphthyridine-8-carbonitrile] is 5-fold higher in IC50: 0.2 nM for the first, 1 nM for the second.

First: CCN1Cc2nc3ccc(Cl)cc3c(NCc3ccc(OC)c(Cl)c3)c2C1=O [N, 7-chloro-9-[(3-chloro-4-methoxybenzyl)amino]-2-ethyl-2,3-dihydro-1H-pyrrolo[3,4-b]quinolin-1-one]
Second: CCN1Cc2nc3ccc(OC)cc3c(NCc3ccc(OC)c(Cl)c3)c2C1=O [L, 9-((3-chloro-4-methoxybenzyl)amino)-2-ethyl-7-methoxy-2,3-dihydro-1H-pyrrolo[3,4-b]quinolin-1-one]
The IC50 of the first is 2.2-fold lower: 1.7 nM for the first, 3.8 nM for the second.

Compared with `CCN1Cc2nc3ccc(C(F)(F)F)cc3c(NCc3ccc(OC)c(Cl)c3)c2C1=O` [M, 9-[(3-chloro-4-methoxybenzyl)amino]-2-ethyl-7-(trifluoromethyl)-2,3-dihydro-1H-pyrrolo[3,4-b]quinolin-1-one], `CCN1Cc2nc3ccc(C#N)cc3c(NCc3ccc(OC)c(Cl)c3)c2C1=O` [K, 9-[(3-chloro-4-methoxybenzyl)amino]-2-ethyl-1-oxo-2,3-dihydro-1H-pyrrolo[3,4-b]quinoline-7-carbonitrile] is 4.9-fold lower in IC50: 0.29 nM for the first, 0.059 nM for the second. The second is the more potent here.

Going from `CCN1Cc2nc3ccccc3c(NCc3ccc(OC)c(Cl)c3)c2C1=O` [O, 9-[(3-chloro-4-methoxybenzyl)amino]-2-ethyl-2,3-dihydro-1H-pyrrolo[3,4-b]quinolin-1-one] to `COc1ccc(CNc2c3c(nc4ccccc24)CN(C(C)(C)C)C3=O)cc1Cl` [Compound P, 2-(tert-butyl)-9-[(3-chloro-4-methoxybenzyl)amino]-2,3-dihydro-1H-pyrrolo[3,4-b]quinolin-1-one], the IC50 rises from 64 nM to 333 nM (5.2-fold). The first is the more potent here.
